Laboratory results from US12389911B2, “Benzimidazole compound or salt thereof, agricultural and horticultural insecticidal and acaricidal agent containing said compound, and method for using same” (NIHON NOHYAKU CO., LTD., priority 2019, dated 2025).

Columns and labels:
Format in all cases: in vivo
[1] = system: Green peach aphid (Myzus persicae); test: Test for control efficacy on green peach aphid (foliar application on Chinese cabbage); details: 500 ppm, foliar application to potted Chinese cabbage, 6 days after application
Description: Test for Control Efficacy on Green Peach Aphid (Myzus persicae) Chinese cabbage plants were planted in plastic pots (diameter: 8 cm, height: 8 cm), green peach aphids were propagated on the plants, and the number of surviving Green peach aphids in each pot was counted. The benzimidazole compounds represented by the general formula (1) of the present invention or salts thereof were separately dispersed in water and diluted to 500 ppm. The agrochemical dispersions were applied to the foliage of the potted Chinese cabbage plants. After the plants were air-dried, the pots were kept in a greenhouse. At 6 days after the foliar application, the number of surviving Green peach aphids on the Chinese cabbage plant in each pot was counted, the control rate was calculated according to the formula shown below, and the control efficacy was evaluated according to the criteria shown below. Control rate=100−{(T×Ca)/(Ta×C)}×100 [Expression 1] Ta: the number of survivors before the foliar application in a treatment plot T: the number of survivors after the foliar application in a treatment plot Ca: the number of survivors before the foliar application in a non-treatment plot C: the number of survivors after the foliar application in a non-treatment plot Criteria • A: the control rate is 100%. • B: the control rate is 90 to 99%. • C: the control rate is 80 to 89%. • D: the control rate is 50 to 79%.

[2] = system: Two-spotted spider mite (Tetranychus urticae); test: Acaricidal action on two-spotted spider mite (kidney bean leaf disk spray); details: 500 ppm, adult females, 25° C., two days after treatment
Experimental: Acaricidal Action on Two-Spotted Spider Mite (Tetranychus urticae)
Leaf disk having a diameter of 2 cm was prepared by leaves of kidney bean, and the leaf disk was placed on the wetted filter paper. Adult hens of two-spotted spider mite were inoculated on the wetted filter paper, and then 50 ml of an agrochemical dispersion, prepared by diluting a formulation containing the benzimidazole compound represented by the general formula (1) of the present invention or salt thereof as an active ingredient to adjust each of the concentrations to 500 ppm, was sprayed on turntable uniformly. After the spraying, it was allowed to stand in a thermostatic chamber at 25° C. Two days after the treatment of an agrochemical dispersion, the dead mites were counted, the corrected mortality rate was calculated according to the formula shown below, and the acaricidal efficacy was evaluated according to the criteria of Test Example 2. This test was conducted in duplicate using 10 adult hens of two-spotted spider per plot. Corrected mortality(%)=(Number of dead mites in a non-treatment plot−Number of dead mites in a treatment plot)/(Number of dead mites in a non-treatment plot)×100 [Expression 4]

[3] = system: Small brown planthopper (Laodelphax striatellus); test: Insecticidal test on small brown planthopper (rice seedling dip); details: 500 ppm, rice seedlings dipped 30 seconds, ten 3rd-instar larvae, 8 days after inoculation
Description: Insecticidal Test on Small Brown Planthopper (Laodelphax striatellus)
The benzimidazole compounds represented by the general formula (1) of the present invention or salts thereof were separately dispersed in water and diluted to 500 ppm. Rice plant seedlings (variety: Nihonbare) were dipped in the agrochemical dispersions for 30 seconds. After air-dried, each seedling was put into a separate glass test tube and inoculated with ten 3rd-instar larvae of small brown planthopper, and then the glass test tubes were capped with cotton plugs. At 8 days after the inoculation, survival rates were calculated from the numbers of surviving larvae and dead larvae, the corrected mortality rate was calculated according to the formula shown below, and the insecticidal efficacy was evaluated according to the criteria shown below. Corrected mortality rate (%)=(Survival rate in a non-treatment plot−Survival rate in a treatment plot)/(Survival rate in a non-treatment plot)×100 [Expression 2] Criteria: • A: the corrected mortality rate is 100%. • B: the corrected mortality rate is 90 to 99%. • C: the corrected mortality rate is 80 to 89%. • D: the corrected mortality rate is 50 to 79%.

## CCCCCCCCc1cn(-c2nc3ccccc3n2S(=O)(=O)CC)cn1 [Compound 1-4]
[1]
  control efficacy (control rate), activity level: D or higher
[2]
  acaricidal efficacy (corrected mortality rate), activity level: D or higher

## CCCCCC/C=C\c1cn(-c2nc3ccccc3n2S(=O)(=O)CC)cn1 [Compound 1-6]
[1]
  control efficacy (control rate), activity level: D or higher
[2]
  acaricidal efficacy (corrected mortality rate), activity level: D or higher

## CCS(=O)(=O)n1c(-n2cnc(Cc3ccccc3)c2)nc2ccccc21 [Compound 1-8]
[1]
  control efficacy (control rate), activity level: D or higher
[2]
  acaricidal efficacy (corrected mortality rate), activity level: D or higher

## CCS(=O)(=O)n1c(-n2cnc(CCc3ccccc3)c2)nc2ccccc21 [Compound 1-9]
[3]
  insecticidal efficacy (corrected mortality rate), activity level: D or higher
[2]
  acaricidal efficacy (corrected mortality rate), activity level: D or higher

## CCS(=O)(=O)n1c(-n2cnc(CCc3ccc(Cl)cc3)c2)nc2ccccc21 [Compound 1-12]
[1]
  control efficacy (control rate), activity level: D or higher
[2]
  acaricidal efficacy (corrected mortality rate), activity level: D or higher

## CCS(=O)(=O)n1c(-n2cnc(CCc3ccc(Cl)cc3Cl)c2)nc2ccccc21 [Compound 1-13]
[1]
  control efficacy (control rate), activity level: D or higher
[2]
  acaricidal efficacy (corrected mortality rate), activity level: D or higher

## CCS(=O)(=O)n1c(-n2cnc(C(F)(C(F)(F)F)C(F)(F)F)c2)nc2ccccc21 [Compound 1-22, 1-ethanesulfonyl-2-(4-heptafluoroisopropylimidazol-1-yl)benzimidazole]
[3]
  insecticidal efficacy (corrected mortality rate), activity level: D or higher
[2]
  acaricidal efficacy (corrected mortality rate), activity level: D or higher

## CCS(=O)(=O)n1c(-n2cnc(C(F)(F)C(F)(F)C(F)(F)C(F)(F)F)c2)nc2ccccc21 [Compound 1-27]
[1]
  control efficacy (control rate), activity level: D or higher
[2]
  acaricidal efficacy (corrected mortality rate), activity level: D or higher

## CCS(=O)(=O)n1c(-n2cnc(C(=O)Nc3ccccc3)c2)nc2ccccc21 [Compound 1-30]
[1]
  control efficacy (control rate), activity level: D or higher

## CCS(=O)(=O)n1c(-n2cnc(COCC(F)(F)C(F)(F)C(F)(F)F)c2)nc2ccccc21 [Compound 1-32]
[1]
  control efficacy (control rate), activity level: D or higher
[2]
  acaricidal efficacy (corrected mortality rate), activity level: D or higher

## CCS(=O)(=O)n1c(-n2cc(C#Cc3ccc(C(F)(F)F)cc3)cn2)nc2ccccc21 [Compound 2-8]
[1]
  control efficacy (control rate), activity level: D or higher
[2]
  acaricidal efficacy (corrected mortality rate), activity level: D or higher

## CCS(=O)(=O)n1c(-n2cc(C(F)(C(F)(F)F)C(F)(F)F)cn2)nc2ccccc21 [Compound 2-10]
[1]
  control efficacy (control rate), activity level: D or higher
[2]
  acaricidal efficacy (corrected mortality rate), activity level: D or higher

## CCS(=O)(=O)n1c(-n2cc(C(=O)OC(C)(C)C)cn2)nc2ccccc21 [Compound 2-11]
[1]
  control efficacy (control rate), activity level: D or higher
[2]
  acaricidal efficacy (corrected mortality rate), activity level: D or higher

## CCS(=O)(=O)n1c(-n2ccc(C(F)(F)F)n2)nc2ccccc21 [Compound 2-12]
[3]
  insecticidal efficacy (corrected mortality rate), activity level: D or higher
[2]
  acaricidal efficacy (corrected mortality rate), activity level: D or higher

## CCS(=O)(=O)n1c(-n2cc(Cl)c(C(F)(F)F)n2)nc2ccccc21 [Compound 2-13]
[1]
  control efficacy (control rate), activity level: D or higher
[2]
  acaricidal efficacy (corrected mortality rate), activity level: D or higher

## CS(=O)(=O)n1c(-n2cc(I)c(C(F)(F)F)n2)nc2ccccc21 [Compound 2-15]
[1]
  control efficacy (control rate), activity level: D or higher
[2]
  acaricidal efficacy (corrected mortality rate), activity level: D or higher

## CCc1cn(-c2nc3ccccc3n2S(=O)(=O)CC)nc1C(F)(F)F [Compound 2-19]
[1]
  control efficacy (control rate), activity level: D or higher
[2]
  acaricidal efficacy (corrected mortality rate), activity level: D or higher

## CCS(=O)(=O)n1c(-n2cc(C3CC3)c(C(F)(F)F)n2)nc2ccccc21 [Compound 2-20]
[1]
  control efficacy (control rate), activity level: D or higher
[2]
  acaricidal efficacy (corrected mortality rate), activity level: D or higher

## CCS(=O)(=O)n1c(-n2cc(/C=C/C(=O)OC(C)(C)C)c(C(F)(F)F)n2)nc2ccccc21 [Compound 2-24]
[1]
  control efficacy (control rate), activity level: D or higher
[2]
  acaricidal efficacy (corrected mortality rate), activity level: D or higher

## CCOC(=O)c1cn(-c2nc3ccccc3n2S(=O)(=O)CC)nc1C(F)(F)F [Compound 2-26]
[1]
  control efficacy (control rate), activity level: D or higher
[2]
  acaricidal efficacy (corrected mortality rate), activity level: D or higher

## CCS(=O)(=O)n1c(-n2cc(C(=O)OCC(C)(C)C)c(C(F)(F)F)n2)nc2ccccc21 [Compound 2-28]
[1]
  control efficacy (control rate), activity level: D or higher
[2]
  acaricidal efficacy (corrected mortality rate), activity level: D or higher

## CCS(=O)(=O)n1c(-n2cc(Br)c(Br)n2)nc2ccccc21 [Compound 2-34]
[1]
  control efficacy (control rate), activity level: D or higher
[2]
  acaricidal efficacy (corrected mortality rate), activity level: D or higher

## CCS(=O)(=O)n1c(-n2cc(Cl)c(OCC(F)(F)C(F)(F)F)n2)nc2ccccc21 [Compound 2-39]
[1]
  control efficacy (control rate), activity level: D or higher
[2]
  acaricidal efficacy (corrected mortality rate), activity level: D or higher

## CCS(=O)(=O)n1c(-n2cc(Br)c(OCC(F)(F)C(F)(F)F)n2)nc2ccccc21 [Compound 2-40]
[1]
  control efficacy (control rate), activity level: D or higher
[2]
  acaricidal efficacy (corrected mortality rate), activity level: D or higher

## CCS(=O)(=O)n1c(-n2ccc(C(=O)OC(C)(C)C)n2)nc2ccccc21 [Compound 2-43]
[1]
  control efficacy (control rate), activity level: D or higher
[2]
  acaricidal efficacy (corrected mortality rate), activity level: D or higher

## CCS(=O)(=O)n1c(-n2cc(C(=O)OC(C)(C)C)c(C(F)F)n2)nc2ccccc21 [Compound 2-51]
[1]
  control efficacy (control rate), activity level: D or higher
[2]
  acaricidal efficacy (corrected mortality rate), activity level: D or higher

## CCS(=O)(=O)n1c(-n2cc(C(=O)OC(C)C)c(C(F)(F)F)n2)nc2ccccc21 [Compound 2-53]
[1]
  control efficacy (control rate), activity level: D or higher
[2]
  acaricidal efficacy (corrected mortality rate), activity level: D or higher

## CCC(C)(C)OC(=O)c1cn(-c2nc3ccccc3n2S(=O)(=O)CC)nc1C(F)(F)F [Compound 2-54]
[1]
  control efficacy (control rate), activity level: D or higher
[2]
  acaricidal efficacy (corrected mortality rate), activity level: D or higher

## CCS(=O)(=O)n1c(-n2cc(SCC(F)(F)C(F)(F)F)cn2)nc2ccccc21 [Compound 2-141]
[2]
  acaricidal efficacy (corrected mortality rate), activity level: D or higher

## CCS(=O)(=O)n1c(-n2cc(C(=O)CC(C)C)c(CC(C)C)n2)nc2ccccc21 [Compound 2-142]
[2]
  acaricidal efficacy (corrected mortality rate), activity level: D or higher

## CCOC(=O)/C=C/c1nn(-c2nc3ccccc3n2S(=O)(=O)CC)cc1C(=O)OCC [Compound 2-143]
[2]
  acaricidal efficacy (corrected mortality rate), activity level: D or higher

## CCS(=O)(=O)n1c(-n2cc(C(=O)OC(C)(C)C)c(/C=C/C(=O)OC(C)(C)C)n2)nc2ccccc21 [Compound 2-144]
[2]
  acaricidal efficacy (corrected mortality rate), activity level: D or higher

## CCS(=O)(=O)n1c(-n2cc(C(=O)OC(C)(C)C)c(C#CC(C)(C)C)n2)nc2ccccc21 [Compound 2-145]
[2]
  acaricidal efficacy (corrected mortality rate), activity level: D or higher

## CCS(=O)(=O)n1c(-n2cnc(C(F)(F)F)n2)nc2ccccc21 [Compound 3-1]
[1]
  control efficacy (control rate), activity level: D or higher
[2]
  acaricidal efficacy (corrected mortality rate), activity level: D or higher

## CCS(=O)(=O)n1c(-n2cnc(C(F)(F)C(F)(F)F)n2)nc2ccccc21 [Compound 3-2]
[2]
  acaricidal efficacy (corrected mortality rate), activity level: D or higher

## CCS(=O)(=O)n1c(-n2cnc(SC)n2)nc2ccccc21 [Compound 3-4]
[2]
  acaricidal efficacy (corrected mortality rate), activity level: D or higher

## CCS(=O)(=O)n1c(-n2ccc(C(=O)OC(C)(C)C)c2)nc2ccccc21 [Compound 7-1]
[2]
  acaricidal efficacy (corrected mortality rate), activity level: D or higher

## CCS(=O)(=O)n1c(-n2cc(C(=O)OC)c(C(=O)OC)c2)nc2ccccc21 [Compound 7-6]
[2]
  acaricidal efficacy (corrected mortality rate), activity level: D or higher
